{
  "source": "patent US20230329283A1",
  "about": "(priority 2021, published 2023)",
  "key": {"[1]": {"test_system": "colon bacillus (Escherichia coli)", "type": "cell-based"}, "salmonella [2]": {"test_system": "salmonella", "type": "cell-based"}, "Clostridium perfringens [3]": {"test_system": "Clostridium perfringens", "type": "cell-based", "settings": "16 hours at 37° C., 105 CFU/mL, minimum concentration making the hole clear"}, "salmonella [4]": {"test_system": "salmonella", "experiment": "Minimum bactericidal concentration (MBC)", "type": "cell-based", "settings": "concentration inhibiting growth of 99.9% bacteria, 16h culture on solid medium"}, "Clostridium perfringens [5]": {"test_system": "Clostridium perfringens", "type": "cell-based", "settings": "concentration inhibiting growth of 99.9% bacteria, 16h culture on solid medium"}, "[6]": {"test_system": "Four indicator bacteria (Escherichia coli, Salmonella, Staphylococcus aureus and Clostridium perfringens)", "type": "cell-based", "settings": "FIG. 4"}, "[7]": {"test_system": "four bacterial suspensions (Escherichia coli, Salmonella, Staphylococcus aureus and Clostridium perfringens)", "type": "cell-based", "settings": "pepsin 3000 U/mL, pH 2.0, 37° C., 30-180 min, FIG. 5A"}, "[8]": {"test_system": "four bacterial suspensions (Escherichia coli, Salmonella, Staphylococcus aureus and Clostridium perfringens)", "type": "cell-based", "settings": "trypsin 250U/mL, pH 8.0, 37° C., 30-180 min, TrSub at MIC, FIG. 5B"}, "[9]": {"test_system": "Escherichia coli, Salmonella, Staphylococcus aureus and Clostridium perfringens", "type": "cell-based", "settings": "on Escherichia coli"}, "[10]": {"test_system": "colon bacillus (Escherichia coli)", "settings": "concentration inhibiting growth of 99.9% bacteria, 16h culture on solid medium"}},
  "data": [
    {"substance": "TrSub (EFGAGKAQCAAAWLQCASGGTLGCGGGAVACQNYRQFQCRAA; the amino acid sequence of the recombinant antimicrobial peptide TrSub)", "values": [
      {"measurement": "MIC Gram-negative bacteria colon bacillus", "setting": "[1]", "result": 37.5, "unit": "µg/mL"},
      {"measurement": "MIC Gram-negative bacteria salmonella", "setting": "salmonella [2]", "result": 37.5, "unit": "µg/mL"},
      {"measurement": "MIC Gram-positive bacteria Clostridium perfringens", "setting": "Clostridium perfringens [3]", "result": 25, "unit": "µg/mL"},
      {"measurement": "MBC Gram-negative bacteria salmonella", "setting": "salmonella [4]", "result": 75, "unit": "µg/mL"},
      {"measurement": "MBC Gram-positive bacteria Clostridium perfringens", "setting": "Clostridium perfringens [5]", "result": 25, "unit": "µg/mL"},
      {"measurement": "change in the inhibition rate of each bacterium after heat treatment", "setting": "[6]; boiling water for 20 min", "result": "almost no change"},
      {"measurement": "inhibition rate after heat treatment", "setting": "[6]; boiling water, 25 min treatment", "result": "about 80%"},
      {"measurement": "inhibition rate to various bacteria after being treated by pepsin", "setting": "[7]; TrSub at MIC", "result": "above 80%"},
      {"measurement": "stability to pepsin", "setting": "[7]", "result": "good stability"},
      {"measurement": "stability to trypsin", "setting": "[8]", "result": "poor"},
      {"measurement": "inhibition rate of the two Gram-positive bacteria after trypsin treatment", "setting": "[8]; Gram-positive bacteria", "result": "about 80%"},
      {"measurement": "antibacterial activity of the expression product", "setting": "[9]", "result": "inhibitory effect"},
      {"measurement": "MBC Gram-negative bacteria colon bacillus", "setting": "[10]", "result": 37.5, "unit": "µg/mL"}
    ]}
  ]
}
